Laboratory results published in US20110098296A1, “Thiazole And Oxazole Kinase Inhibitors” (priority 2007, published 2011).
Counter-ions that a name gives are not always drawn.

Experiments:
[1] = target: T1, EGFR (Homo sapiens, UniProt P00533); test: EGFR substrate phosphorylation assay (HTRF); format: biochemical; conditions: Method (A): Enzyme Mix incubated with compound at 20° C. for 1 hr, reaction started by adding Substrate Mix
T1 construct: made in house; host or cells: baculovirus expression system
T1 sequence (P00533 25-1210): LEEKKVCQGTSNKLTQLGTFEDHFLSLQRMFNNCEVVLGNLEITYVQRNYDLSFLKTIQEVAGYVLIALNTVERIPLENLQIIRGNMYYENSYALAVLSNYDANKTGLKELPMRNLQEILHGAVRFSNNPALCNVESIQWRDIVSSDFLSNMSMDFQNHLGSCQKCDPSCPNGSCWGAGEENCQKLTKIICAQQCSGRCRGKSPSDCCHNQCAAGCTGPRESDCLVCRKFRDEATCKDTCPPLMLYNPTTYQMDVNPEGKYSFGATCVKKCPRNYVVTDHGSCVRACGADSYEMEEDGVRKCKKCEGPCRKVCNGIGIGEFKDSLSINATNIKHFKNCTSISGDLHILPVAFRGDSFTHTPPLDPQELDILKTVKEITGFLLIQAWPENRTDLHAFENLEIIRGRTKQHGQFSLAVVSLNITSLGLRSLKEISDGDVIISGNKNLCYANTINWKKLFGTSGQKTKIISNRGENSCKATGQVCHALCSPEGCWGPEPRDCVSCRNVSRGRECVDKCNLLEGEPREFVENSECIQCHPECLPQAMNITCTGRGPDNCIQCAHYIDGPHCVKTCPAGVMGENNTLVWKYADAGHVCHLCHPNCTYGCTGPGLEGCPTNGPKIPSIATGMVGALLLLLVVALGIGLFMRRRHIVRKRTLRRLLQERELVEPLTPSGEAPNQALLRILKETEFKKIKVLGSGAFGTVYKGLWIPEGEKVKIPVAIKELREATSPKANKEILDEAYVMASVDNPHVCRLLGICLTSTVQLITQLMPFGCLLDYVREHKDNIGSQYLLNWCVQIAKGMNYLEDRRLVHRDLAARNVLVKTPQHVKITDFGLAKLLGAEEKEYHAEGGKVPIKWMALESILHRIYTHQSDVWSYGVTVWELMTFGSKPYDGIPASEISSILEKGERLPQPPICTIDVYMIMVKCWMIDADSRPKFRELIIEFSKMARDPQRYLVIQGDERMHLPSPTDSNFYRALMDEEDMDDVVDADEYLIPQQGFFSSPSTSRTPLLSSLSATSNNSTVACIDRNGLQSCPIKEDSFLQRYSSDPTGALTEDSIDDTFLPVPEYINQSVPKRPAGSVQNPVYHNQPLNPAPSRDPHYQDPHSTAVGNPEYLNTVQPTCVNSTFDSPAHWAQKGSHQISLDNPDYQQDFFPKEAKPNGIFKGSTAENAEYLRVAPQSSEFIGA
Outline: (§1)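 Baculovirus-expressed kinase (0.8 nM EGFR or 10 nM ErbB2 in enzyme mix) with Peptide C 0.8 μM and ATP 20 μM (substrate-mix levels), MOPS pH 7.5, MnCl2; 90 min, 20 °C, HTRF anti-phosphotyrosine. Method A adds 1 h enzyme–compound preincubation; B none. pIC50, final compound 0.00027–47.6 μM.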

[2] = target: T2, ErbB2 (Homo sapiens, UniProt P04626); test: ErbB-2 substrate phosphorylation assay (HTRF); format: biochemical; conditions: Method (A): Enzyme Mix incubated with compound at 20° C. for 1 hr, reaction started by adding Substrate Mix
T2 construct: made in house; host or cells: baculovirus expression system
T2 sequence (P04626 23-1255): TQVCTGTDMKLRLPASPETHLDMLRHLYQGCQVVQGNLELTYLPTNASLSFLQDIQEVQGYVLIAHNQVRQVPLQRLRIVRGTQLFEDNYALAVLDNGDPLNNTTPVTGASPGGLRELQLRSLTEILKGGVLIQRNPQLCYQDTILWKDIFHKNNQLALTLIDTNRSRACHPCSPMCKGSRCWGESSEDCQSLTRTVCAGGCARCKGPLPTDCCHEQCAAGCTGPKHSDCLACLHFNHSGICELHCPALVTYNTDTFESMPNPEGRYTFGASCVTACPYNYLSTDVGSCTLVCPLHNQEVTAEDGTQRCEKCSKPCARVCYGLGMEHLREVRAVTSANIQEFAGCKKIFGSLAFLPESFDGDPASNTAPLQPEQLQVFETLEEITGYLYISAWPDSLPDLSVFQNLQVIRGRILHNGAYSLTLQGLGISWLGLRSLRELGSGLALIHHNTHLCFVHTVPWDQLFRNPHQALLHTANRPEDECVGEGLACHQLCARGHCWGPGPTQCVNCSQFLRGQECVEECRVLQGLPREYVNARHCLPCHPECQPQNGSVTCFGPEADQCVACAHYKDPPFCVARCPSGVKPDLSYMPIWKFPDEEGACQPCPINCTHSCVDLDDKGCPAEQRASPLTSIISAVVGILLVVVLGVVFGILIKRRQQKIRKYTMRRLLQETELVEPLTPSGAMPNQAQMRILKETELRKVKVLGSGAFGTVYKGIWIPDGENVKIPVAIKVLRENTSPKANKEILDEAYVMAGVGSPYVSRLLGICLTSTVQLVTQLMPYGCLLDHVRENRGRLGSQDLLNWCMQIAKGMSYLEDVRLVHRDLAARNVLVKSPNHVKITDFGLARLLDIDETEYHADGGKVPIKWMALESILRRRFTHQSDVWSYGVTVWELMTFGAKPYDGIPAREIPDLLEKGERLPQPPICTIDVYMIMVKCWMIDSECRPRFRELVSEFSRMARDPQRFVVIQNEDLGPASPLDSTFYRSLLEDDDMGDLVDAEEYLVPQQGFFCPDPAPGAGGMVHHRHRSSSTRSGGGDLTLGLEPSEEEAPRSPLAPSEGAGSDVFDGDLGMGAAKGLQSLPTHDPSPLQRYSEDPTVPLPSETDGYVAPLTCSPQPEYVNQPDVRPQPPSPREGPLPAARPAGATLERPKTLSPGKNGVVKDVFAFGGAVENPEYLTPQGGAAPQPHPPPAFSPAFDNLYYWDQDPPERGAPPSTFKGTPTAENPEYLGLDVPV
Outline: as §1

[3] = test system: HN5 tumor cells; test: Method C: Cell Growth Inhibition Assay (CellTiter-Glo), HN5; format: cell-based; conditions: Homo sapiens, 72 h, 3 days, 4-parameter fit
Description: (§2) Human breast tumor cells (BT474) were cultured in RPMI (Mediatech 50-011-PB), containing 10% FBS (JRH Biosciences 12176) and 1% penicillin-streptomycin (Invitrogen 15140). Human head and neck tumor cells (HN5) were cultured in high glucose DMEM (Mediatech 50-013-PB) containing 10% FBS and 1% penicillin-streptomycin. Human colon tumor cells (Colo205) were cultured in RPMI (Mediatech 50-020-PB) containing 10% FBS and 1% penicillin-streptomycin. Human melanoma cancer cells (SK-MEL-28) were cultured in EMEM with nonessential amino acids (Mediatech 50-011-PB) containing 10% FBS, 1% sodium pyruvate (JT Baker 3354-04), and 1% penicillin-streptomycin. Human melanoma cancer cells (A375P F11s) were cultured in RPMI (Mediatech 50-020-PB) containing 10% FBS, 1% sodium pyruvate, and 1% penicillin-streptomycin. Human colon cancer cells (HT-29) were cultured in high glucose DMEM (Mediatech 50-013-PB) containing 10% FBS and 1% penicillin-streptomycin. Human melanoma cancer cells (SK-MEL-3) were cultured in McCoy's 5A (50-025-PB) containing 15% FBS, and 1% penicillin-streptomycin. All cell lines were maintained at 37° C. in a humidified 5% CO2, 95% air incubator. Cells were harvested using trypsin/EDTA (Invitrogen 25200), counted using an haemocytometer, and plated. For 96-well assays (using white full-area NUNC plates cat. #136102), cells were plated in 105 μL at the following densities (cells/well): HN5, 500; Colo205, 500; SK-MEL-28, 500; A375P-F11s, 500; HT-29, 500; SK-MEL-3, 500; and BT474, 3000. For 384-well assays (white full-area NUNC plates, cat. #781080), cells were plated in 48 μL at the following densities (cells/well): HN5, 500; Colo205, 500; SK-MEL-28, 500; A375P-F11s, 500; HT29, 500; SK-MEL-3, 500; and BT474, 2000.
(§3) The next day, compounds were diluted as follow: For 96-well assays, 13.5 μL of compound in DMSO were diluted using nine (9) serial 1:3 dilutions of 4.5 μL in 9 μL of DMSO. Medium (270 μl/well of RPMI with 10% FBS and 1% penicillin-streptomycin) was added to the plates. Aliquots (7 μl) were added to cells in the final assay giving a final DMSO concentration of 0.2%. For 384-well assays, 15 μL of compound in DMSO were diluted using nine (9) serial 1:3 dilutions of 5 μL in 10 μL of DMSO, followed by a further dilution of 5 μL of compound with 95 μL of medium, of which 2 μL were added to cells in the final assay giving a final DMSO concentration of 0.2%. Cells were incubated at 37° C., 5% CO2 for 3 days.
(§4) Total ATP was measured (as a surrogate estimate of cell number) using CellTiter-Glo® reagent (Promega G7571). Briefly, plates were removed from the incubator and allowed to equilibrate to room temperature for 30 minutes. CellTiter-Glo® (25 μL or 55 μL for 384-well or 96-well assays, respectively) reagent was added to each well and plates were shaken on an orbital plate shaker for 2 mins. Plates were incubated without shaking for a further 30 mins and read on an LJL Analyst GT reader in luminometer mode with an integration time of 0.5 seconds per well. Percent inhibition of cell growth was calculated relative to DMSO vehicle-treated control wells. Concentration of compound required to give 50% inhibition of vehicle-treated control cell growth (IC50) was interpolated using a 4-parameter fit for determining IC50 using the following equation: Y=A+((B−A)/(1+((C/X)̂D))) where X=IC50.

[4] = test system: BT474 tumor cells; test: Method C: Cell Growth Inhibition Assay (CellTiter-Glo), BT474; format: cell-based; conditions: Homo sapiens, BT-474, 72 h, 3 days, 4-parameter fit
[5] = test system: Colo205 tumor cells; test: Method C: Cell Growth Inhibition Assay (CellTiter-Glo), Colo205; format: cell-based; conditions: Homo sapiens, COLO 205, 72 h, 3 days, 4-parameter fit
Outline: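 Luminescent ATP signal (CellTiter-Glo, after 30 min room-temperature equilibration) served as a surrogate for cell number after a 3-day compound exposure at 37° C. Cells were plated at 500/well and treated with serially diluted compound at 0.2% DMSO. IC50 values are 4-parameter fits against DMSO-treated wells.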

[6] = test system: SK-MEL-28 tumor cells; test: Method C: Cell Growth Inhibition Assay (CellTiter-Glo), SK-MEL-28; format: cell-based; conditions: Homo sapiens, SK-MEL-28, 72 h, 3 days, 4-parameter fit
Outline: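 Plating at 500 cells/well is followed the next day by addition of compound as a 1:3 serial dilution series. After 3 days' incubation, CellTiter-Glo luminescence is read and IC50 is calculated versus DMSO wells.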

[7] = test system: A375P F11s tumor cells; test: Method C: Cell Growth Inhibition Assay (CellTiter-Glo), A375P F11s; format: cell-based; conditions: Homo sapiens, 72 h, 3 days, 4-parameter fit
Description: as §2, §3, §4

[8] = test system: HT-29 tumor cells; test: Method C: Cell Growth Inhibition Assay (CellTiter-Glo), HT-29; format: cell-based; conditions: Homo sapiens, HT-29, 72 h, 3 days, 4-parameter fit
Description: as §2, §3, §4

[9] = test system: SK-MEL-3 tumor cells; test: Method C: Cell Growth Inhibition Assay (CellTiter-Glo), SK-MEL-3; format: cell-based; conditions: Homo sapiens, SK-MEL3, 72 h, 3 days, 4-parameter fit
Description: as §2, §3, §4

Row | SMILES | IC50 [1] | IC50 [2] | IC50 [3] | IC50 [4] | IC50 [5] | IC50 [6] | IC50 [7] | IC50 [8] | IC50 [9]
1 | CNc1nc(-c2cccc(NC(=O)c3c(F)cccc3F)c2)c(-c2ccnc(Nc3cccc(CN4CCCC4)c3)n2)s1 [Example 23, 2,6-Difluoro-N-{3-[2-(methylamino)-5-(2-{[3-(1-pyrrolidinylmethyl)phenyl]amino}-4-pyrimidinyl)-1,3-thiazol-4-yl]phenyl}benzamide] | < 100 nM | < 100 nM | < 100 nM | < 100 nM | 100 to 1000 nM | > 1000 nM | 100 to 1000 nM | 100 to 1000 nM | 100 to 1000 nM
2 | CNc1nc(-c2cccc(NC(=O)c3c(F)cccc3F)c2)c(-c2ccnc(Nc3ccc(OCCN(C)C)c(Cl)c3)n2)s1 [Example 24, N-{3-[5-{2-[(3-Chloro-4-{[2-(dimethylamino)ethyl]oxy}phenyl)amino]-4-pyrimidinyl}-2-(methylamino)-1,3-thiazol-4-yl]phenyl}-2,6-difluorobenzamide] | < 100 nM | < 100 nM | < 100 nM | < 100 nM | 100 to 1000 nM | 100 to 1000 nM | 100 to 1000 nM | 100 to 1000 nM | 100 to 1000 nM
3 | CCNc1nc(-c2cccc(NC(=O)c3c(F)cccc3F)c2)c(-c2ccnc(Nc3ccc(OCCN(C)C)c(Cl)c3)n2)s1 [Example 25] | < 100 nM | < 100 nM | 100 to 1000 nM | 100 to 1000 nM | 100 to 1000 nM | 100 to 1000 nM | 100 to 1000 nM | 100 to 1000 nM | 100 to 1000 nM
4 | CCNc1nc(-c2cccc(NC(=O)c3c(F)cccc3F)c2)c(-c2ccnc(Nc3ccc(CCN4CCCC4)c(F)c3)n2)s1 [Example 26, N-(3-{2-(Ethylamino)-5-[2-({3-fluoro-4-[2-(1-pyrrolidinyl)ethyl]phenyl}amino)-4-pyrimidinyl]-1,3-thiazol-4-yl}phenyl)-2,6-difluorobenzamide trifluoroacetate] | < 100 nM | < 100 nM | 100 to 1000 nM | 100 to 1000 nM | 100 to 1000 nM | 100 to 1000 nM | 100 to 1000 nM | 100 to 1000 nM | 100 to 1000 nM
5 | COCCNc1nc(-c2cccc(NC(=O)c3c(F)cccc3F)c2)c(-c2ccnc(Nc3ccc(OCCN4CCCC4)c(Cl)c3)n2)s1 [Example 27, N-[3-(5-{2-[(3-Chloro-4-{[2-(1-pyrrolidinyl)ethyl]oxy}phenyl)amino]-4-pyrimidinyl}-2-{[2-(methyloxy)ethyl]amino}-1,3-thiazol-4-yl)phenyl]-2,6-difluorobenzamide] | < 100 nM | < 100 nM | < 100 nM | < 100 nM | 100 to 1000 nM | 100 to 1000 nM | 100 to 1000 nM | 100 to 1000 nM | 100 to 1000 nM
6 | O=C(Nc1cccc(-c2nc(NCCCN3CCOCC3)sc2-c2ccnc(Nc3cccc(CN4CCCC4)c3)n2)c1)c1c(F)cccc1F [Example 28, 2,6-Difluoro-N-{3-[2-{[3-(4-morpholinyl)propyl]amino}-5-(2-{[3-(1-pyrrolidinylmethyl)phenyl]amino}-4-pyrimidinyl)-1,3-thiazol-4-yl]phenyl}benzamide] | < 100 nM | < 100 nM | 100 to 1000 nM | < 100 nM | 100 to 1000 nM | 100 to 1000 nM | 100 to 1000 nM | 100 to 1000 nM | 100 to 1000 nM
7 | CN1CCc2ccc(Nc3nccc(-c4sc(NCCCN5CCOCC5)nc4-c4cccc(NC(=O)c5c(F)cccc5F)c4)n3)cc2C1 [Example 31] | < 100 nM | < 100 nM | < 100 nM | 100 to 1000 nM | 100 to 1000 nM | > 1000 nM | 100 to 1000 nM | 100 to 1000 nM | 100 to 1000 nM
8 | COc1ccc(Nc2nccc(-c3sc(NC4CC4)nc3-c3cccc(NC(=O)c4c(F)cccc4F)c3)n2)cc1OCCN(C)C [Example 32, N-{3-[2-(cyclopropylamino)-5-(2-{[3-{[2-(dimethylamino)ethyl]oxy}-4-(methyloxy)phenyl]amino}-4-pyrimidinyl)-1,3-thiazol-4-yl]phenyl}-2,6-difluorobenzamide] | < 100 nM | < 100 nM | < 100 nM | 100 to 1000 nM | 100 to 1000 nM | 100 to 1000 nM | 100 to 1000 nM | 100 to 1000 nM | 100 to 1000 nM
9 | O=C(Nc1cccc(-c2nc(NC3CC3)sc2-c2ccnc(Nc3ccc(OCCN4CCCC4)c(F)c3)n2)c1)c1c(F)cccc1F [Example 33, N-[3-(2-(Cyclopropylamino)-5-{2-[(3-fluoro-4-{[2-(1-pyrrolidinyl)ethyl]oxy}phenyl)amino]-4-pyrimidinyl}-1,3-thiazol-4-yl)phenyl]-2,6-difluorobenzamide] | < 100 nM | < 100 nM | 100 to 1000 nM | < 100 nM | 100 to 1000 nM | 100 to 1000 nM | 100 to 1000 nM | 100 to 1000 nM | 100 to 1000 nM
10 | CC(=O)Nc1nc(-c2cccc(NC(=O)c3c(F)cccc3F)c2)c(-c2ccnc(Nc3cccc(CN4CCCC4)c3)n2)s1 [Example 34, N-{3-[2-(Acetylamino)-5-(2-{[3-(1-pyrrolidinylmethyl)phenyl]amino}-4-pyrimidinyl)-1,3-thiazol-4-yl]phenyl}-2,6-difluorobenzamide] | < 100 nM | < 100 nM | < 100 nM | < 100 nM | 100 to 1000 nM | 100 to 1000 nM | 100 to 1000 nM | 100 to 1000 nM | 100 to 1000 nM
11 | CN(C)CCOc1ccc(Nc2nccc(-c3sc(N(C)C)nc3-c3cccc(NC(=O)c4c(F)cccc4F)c3)n2)cc1 [Example 36, N-[3-(2-(Dimethylamino)-5-{2-[(4-{[2-(dimethylamino)ethyl]oxy}phenyl)amino]-4-pyrimidinyl}-1,3-thiazol-4-yl)phenyl]-2,6-difluorobenzamide] | < 100 nM | < 100 nM | < 100 nM | < 100 nM | 100 to 1000 nM | > 1000 nM | > 1000 nM | 100 to 1000 nM | > 1000 nM
